The conditions of this data set: 101.33 kPa, Liquid; for speed of sound: Sing-around technique in a fixed-path interferometer; for mass density: Vibrating tube method.

Numbers after ± are expanded uncertainties.

`Cc1ccccc1` [toluene]: the speed of sound (as a rule, how fast a sound wave travels through the sample) came out at 1304.6 ± 0.8 m/s (298.15 K), 1283.2 ± 0.8 m/s (303.15 K) and 1261.8 ± 0.8 m/s (308.15 K). Also, the mass density (commonly the mass of a sample divided by its volume) (298.15 K) amounted to 862.18 ± 1 kg/m3, the mass density (303.15 K) came to 857.51 ± 1 kg/m3 and the mass density (308.15 K) is given as 852.82 ± 1 kg/m3.
As for `C1CCOCC1` [tetrahydropyran], the speed of sound reads like this: (298.15 K) 1269.8 ± 0.8 m/s; (303.15 K) 1246.8 ± 0.8 m/s; (308.15 K) 1224.4 ± 0.8 m/s. In addition, the mass density by setting is: (298.15 K) 879.13 ± 1 kg/m3; (303.15 K) 873.99 ± 1 kg/m3; (308.15 K) 868.83 ± 1 kg/m3.
In the case of `Cc1ccccc1Cl` [2-chlorotoluene], the speed of sound by setting is: (298.15 K) 1298.7 ± 1 m/s; (303.15 K) 1280.7 ± 1 m/s; (308.15 K) 1262.7 ± 1 m/s. For the same compound, the mass density reads like this: (298.15 K) 1077.3 ± 1 kg/m3; (303.15 K) 1072.5 ± 1 kg/m3; (308.15 K) 1067.6 ± 1 kg/m3.
For the compound `Cc1ccccc1C` [1,2-dimethylbenzene], the speed of sound reads like this: (298.15 K) 1346.2 ± 0.7 m/s; (303.15 K) 1326.2 ± 0.7 m/s; (308.15 K) 1306.1 ± 0.7 m/s. The mass density is listed as 875.91 ± 1 kg/m3 (298.15 K), 871.7 ± 1 kg/m3 (303.15 K) and 867.48 ± 1 kg/m3 (308.15 K).
Consider `c1ccccc1` [benzene], for which the speed of sound is given as 1299.4 ± 0.8 m/s (298.15 K), 1276.1 ± 0.77 m/s (303.15 K) and 1252.9 ± 0.76 m/s (308.15 K). Further, the mass density runs as follows: (298.15 K) 873.54 ± 1 kg/m3; (303.15 K) 868.2 ± 1 kg/m3; (308.15 K) 862.84 ± 1 kg/m3.
